In publication PMC8379256, “A xanthene derivative, DS20060511, attenuates glucose intolerance by inducing skeletal muscle-specific GLUT4 translocation in mice” (Communications Biology, 2021):
Where “and” joins values, the source holds several entries; their conditions need not be identical. Equal values may be shown once.

Assays:
[1] = system: isolated soleus and EDL muscles; experiment: [3H]-2-DG uptake in isolated soleus and EDL muscles from WT and GLUT4KO mice; design: species or system mouse; conditions: for 2DOG Trn / IC 2DOG / 2-DG uptake Raio: DS20060511 10μM, individual muscles; for 2DOG Trn / IC 2DOG: 2DG 1 mM, incubation time 10 min; for 2-DG uptake Raio: ratio to vehicle
Description: Fig. 3 The glucose-lowering effect of DS20060511 is totally dependent on GLUT4. a Blood glucose and plasma insulin levels during oral GTT in wild-type (WT, n = 5) and GLUT4 knockout (KO, n = 6) mice. Mice received oral administration of vehicle or DS20060511 (30 mg kg^−1), 15 min prior to the glucose administration (1.5 g kg^−1). Values shown are means ± SEM. *P < 0.05, **P < 0.01 vs. vehicle by the t-test. b DS20060511-stimulated [^3H]-2-DG uptake in the isolated soleus and EDL muscles excised from WT (n = 6) and KO (n = 6) mice. Values shown are means ± SEM. **P < 0.01 vs. vehicle by the t-test.
The soleus or EDL muscle was removed from anesthetized mice (isoflurane anesthesia) that had been denied access to food overnight, and incubated with oxygenated (95% O2/5% CO2) Krebs-Henseleit Bicarbonate (KHB) buffer (118.1 mM NaCl, 4.7 mM KCl, 1.1 mM KH2PO4, 1.2 mM MgSO4, 2.5 mM CaCl2, and 25 mM NaHCO3, pH7.4) in the presence of 11.1 mM glucose at 37 °C. The muscle specimens were then treated with the indicated concentrations of the compounds in KHB buffer containing 11.1 mM glucose and 8 mM mannitol for 10 min at 37 °C. Thereafter, the muscles were rinsed with KHB buffer containing 8 mM mannitol and the compounds for 5 min at 37 °C. Lastly, the muscles were treated with the compounds in KHB buffer containing 1 mM 2-DG (with 0.3 μCi mL^−1 [^3H]-2-DG) and 8 mM mannitol (with 0.03 μCi mL^−1 [^14C]-mannitol) for 10 min at 37 °C. After the muscle specimens were washed, they were lysed with 1 N NaOH and neutralized with 1 N HCl. The ^14C- and ^3H-specific activities were counted with a liquid scintillation counter. The specific uptake of 2-DG was calculated by subtracting the nonspecific uptake of mannitol from the total 2-DG uptake. To investigate the effects of muscle contraction, muscle contraction was induced by electrical stimulation with 5 Hz (1 ms pulse duration, 100 V) for 10 min (SEN-5201, Nihon Koden, Tokyo, Japan).

[2] = system: WT and eNOSKO mice; experiment: ITT in wild-type and eNOS-knockout mice; assay type: in vivo, mouse; conditions: for Blood glucose: Insulin tolerance test, individual animals
Description: Fig. 7 DS20060511 treatment decreases blood glucose levels in both WT and eNOSKO mice during oral GTT and ITT. a, b Blood glucose levels during oral GTT in wild-type (WT, n = 5) and eNOS-knockout (KO, n = 5–6) mice. Mice received vehicle or DS20060511 (10 mg kg^−1) orally 15 min before the glucose administration (3.0 g kg^−1). c, d Blood glucose levels during ITT in WT (n = 4) and KO (n = 5) mice. […] Values shown are means ± SEM. *P < 0.05, **P < 0.01, ***P < 0.001 vs. vehicle by the t-test.
C57BL/6 and db/db mice were purchased from CLEA Japan, Tokyo, Japan. GLUT4- knockout mice were generated at RIKEN BioResource Center, Tsukuba, Japan, according to a previously described method. eNOS-knockout mice were kindly provided by Dr. Masato Tsutsui[41],[42]. The mice were group-housed under controlled illumination (12:12 h light-dark cycle) and temperature (23 ± 2 °C) conditions and given free access to normal chow and water, unless otherwise specified. The HFD-fed obese mice were prepared by feeding C57BL/6 mice a HFD for at least 8 weeks from 6 weeks of age. […] Male mice were used for all the experiments in this study. The animal care and experimental procedures used in the study were approved by The University of Tokyo Animal Care Committee (Approval number: 27-3), and the study was carried out in accordance with the Animal Experimentation Guidelines of Daiichi Sankyo Co., Ltd (Approved number: 20000411).
Mice received the indicated oral dose of DS20060511 or vehicle at the same time as the intraperitoneal injection of insulin (Humulin) at the indicated dose. Blood glucose levels were measured using Glutest Every in blood samples collected from the tail vein at the indicated timepoints.

[3] = system: WT and eNOSKO mice; experiment: Oral GTT in wild-type and eNOS-knockout mice; assay type: in vivo, mouse; conditions: Glucose tolerance test, 30 mg/kg, individual animals

**Q.** What does the source list for `COc1ccc2c(C)c(C(=O)O)ccc2c1C1C2=C(CC(C)(C)CC2=O)OC2=C1C(=O)CC(C)(C)C2` [DS20060511]?
**A.** 2-DG uptake by isolated soleus and EDL muscles (in words) ([1]; GLUT4KO mice): no such increase in muscle uptake was observed; 2DOG Trn ([1]; GLUT4KO, isolated EDL): 219 nmol/ml and 21.9 µM/min and 229 nmol/ml and 22.9 µM/min and 220 nmol/ml and 22.0 µM/min and 239 nmol/ml and 23.9 µM/min and 247 nmol/ml and 24.7 µM/min; IC 2DOG ([1]; GLUT4KO, isolated EDL): 136 nmol/g and 155 nmol/g and 142 nmol/g and 149 nmol/g and 143 nmol/g and 156 nmol/g; 2-DG uptake Raio ([1]; GLUT4KO, isolated EDL): 1.02 and 1.07 and 1.03 and 1.11 and 1.15; 2DOG Trn ([1]; GLUT4KO, isolated Soleus): 272 nmol/ml and 27.2 µM/min and 411 nmol/ml and 41.1 µM/min and 553 nmol/ml and 55.3 µM/min and 323 nmol/ml and 32.3 µM/min and 280 nmol/ml and 28.0 µM/min and 475 nmol/ml and 47.5 µM/min; IC 2DOG ([1]; GLUT4KO, isolated Soleus): 151 nmol/g and 223 nmol/g and 272 nmol/g and 155 nmol/g and 138 nmol/g and 244 nmol/g; 2-DG uptake Raio ([1]; GLUT4KO, isolated Soleus): 0.86 and 1.30 and 1.75 and 1.02 and 0.89 and 1.50; 2-DG uptake by isolated soleus and EDL muscles (in words) ([1]; WT mice): significantly increased the 2-DG uptake; 2DOG Trn ([1]; Wildtype, isolated EDL): 620 nmol/ml and 62.0 µM/min and 476 nmol/ml and 47.6 µM/min and 591 nmol/ml and 59.1 µM/min and 474 nmol/ml and 47.4 µM/min and 359 nmol/ml and 35.9 µM/min and 351 nmol/ml and 35.1 µM/min; IC 2DOG ([1]; Wildtype, isolated EDL): 373 nmol/g and 286 nmol/g and 340 nmol/g and 291 nmol/g and 235 nmol/g and 229 nmol/g; 2-DG uptake Raio ([1]; Wildtype, isolated EDL): 2.47 and 1.90 and 2.36 and 2.12 and 1.61 and 1.57; 2DOG Trn ([1]; Wildtype, isolated Soleus): 632 nmol/ml and 63.2 µM/min and 599 nmol/ml and 59.9 µM/min and 719 nmol/ml and 71.9 µM/min and 638 nmol/ml and 63.8 µM/min and 552 nmol/ml and 55.2 µM/min and 582 nmol/ml and 58.2 µM/min; IC 2DOG ([1]; Wildtype, isolated Soleus): 343 nmol/g and 302 nmol/g and 363 nmol/g and 327 nmol/g and 293 nmol/g and 321 nmol/g; 2-DG uptake Raio ([1]; Wildtype, isolated Soleus): 1.76 and 1.67 and 2.01 and 2.02 and 1.75 and 1.84; Blood glucose ([2]; Wildtype, 10 mg/kg, 0 min): 176 mg/dL and 163 mg/dL and 183 mg/dL and 182 mg/dL; Blood glucose ([2]; Wildtype, 10 mg/kg, 20 min): 96 mg/dL and 77 mg/dL and 89 mg/dL and 88 mg/dL; Blood glucose ([2]; Wildtype, 10 mg/kg, 40 min): 60 mg/dL and 67 mg/dL and 74 mg/dL; Blood glucose ([2]; Wildtype, 10 mg/kg, 60 min): 58 mg/dL and 71 mg/dL and 70 mg/dL and 52 mg/dL; Blood glucose ([2]; Wildtype, 10 mg/kg, 80 min): 57 mg/dL and 67 mg/dL and 68 mg/dL and 53 mg/dL; Blood glucose ([2]; Wildtype, 10 mg/kg, 100 min): 63 mg/dL and 84 mg/dL and 67 mg/dL and 58 mg/dL; Blood glucose ([2]; Wildtype, 10 mg/kg, 120 min): 57 mg/dL and 74 mg/dL and 70 mg/dL; Blood glucose ([2]; eNOSKO, 30 mg/kg, 0 min): 191 mg/dL and 175 mg/dL and 168 mg/dL and 169 mg/dL; Blood glucose ([2]; eNOSKO, 30 mg/kg, 20 min): 95 mg/dL and 89 mg/dL and 100 mg/dL and 120 mg/dL and 97 mg/dL; Blood glucose ([2]; eNOSKO, 30 mg/kg, 40 min): 69 mg/dL and 75 mg/dL and 81 mg/dL and 76 mg/dL; Blood glucose ([2]; eNOSKO, 30 mg/kg, 60 min): 61 mg/dL and 64 mg/dL and 40 mg/dL and 41 mg/dL and 51 mg/dL; Blood glucose ([2]; eNOSKO, 30 mg/kg, 80 min): 66 mg/dL and 55 mg/dL and 39 mg/dL and 48 mg/dL; Blood glucose ([2]; eNOSKO, 30 mg/kg, 100 min): 72 mg/dL and 53 mg/dL and 35 mg/dL and 34 mg/dL and 39 mg/dL; Blood glucose ([2]; eNOSKO, 30 mg/kg, 120 min): 76 mg/dL and 49 mg/dL and 55 mg/dL and 37 mg/dL and 39 mg/dL; blood glucose levels during ITT (in words) ([2]; WT and eNOSKO mice, 30 mg kg−1 po with 0.5 U kg−1 insulin ip): reduced even further; Blood glucose ([3]; 0 min): 77 mg/dL; Blood glucose ([3]; -15 min): 65 mg/dL
